In ChEMBL document CHEMBL1201862, “PubChem BioAssay data set” (2004):
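Cultured in 96-well plates, cells were exposed to test compound for 48 hours across five concentrations. GI50 = concentration required for 50% inhibition of growth.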 Calls of active or inactive are those of the source. No stated cut-off is given here; in the data, active = GI50 up to about 1.1 µM and inactive = higher.

Legend:
Experiment in all cases: NCI tumour cell line growth inhibition, 48 h
A498 = tested on: A498
HCT-15 = tested on: HCT-15
HOP-62 = tested on: HOP-62
HT-29 = tested on: HT-29
M14 = tested on: M14
NCI-H23 = tested on: NCI-H23
NCI-H460 = tested on: NCI-H460
NCI-H522 = tested on: NCI-H522
OVCAR-4 = tested on: OVCAR-4
OVCAR-8 = tested on: OVCAR-8
PC-3 = tested on: PC-3
RPMI-8226 = tested on: RPMI-8226
SF-295 = tested on: SF-295
SK-MEL-2 = tested on: SK-MEL-2
SN12C = tested on: SN12C
SNB-19 = tested on: SNB-19
T47D = tested on: T47D
U-251 = tested on: U-251

| Structure (SMILES) | GI50 (A498) | GI50 (HCT-15) [µM] | GI50 (HOP-62) | GI50 (HT-29) | GI50 (M14) | GI50 (NCI-H23) | GI50 (NCI-H460) | GI50 (NCI-H522) | GI50 (OVCAR-4) | GI50 (OVCAR-8) | GI50 (PC-3) | GI50 (RPMI-8226) | GI50 (SF-295) | GI50 (SK-MEL-2) | GI50 (SN12C) | GI50 (SNB-19) | GI50 (T47D) | GI50 (U-251) |
| --- | --- | --- | --- | --- | --- | --- | --- | --- | --- | --- | --- | --- | --- | --- | --- | --- | --- | --- |
| CCNc1ccc2c(c1)C(=O)N(OS(C)(=O)=O)C2=O | > 100 µM (inactive) | 36.1 | > 100 µM (inactive) | > 100 µM (inactive) | 42.2 µM (inactive) | > 100 µM (inactive) | > 100 µM (inactive) | 16.4 µM (inactive) | 42 µM (inactive) | > 100 µM (inactive) | > 100 µM (inactive) | 31.9 µM (inactive) | > 100 µM (inactive) | 65.6 µM (inactive) | > 100 µM (inactive) | > 100 µM (inactive) | > 100 µM (inactive) | > 100 µM (inactive) |
| O=C(O)c1nn(-c2ccc(Cl)cc2)c2c1C(=O)c1ccccc1C2=O | > 100 µM (inactive) | > 100 | > 100 µM (inactive) | > 100 µM (inactive) | 20 µM (inactive) | 37.5 µM (inactive) | 62.1 µM (inactive) | > 100 µM (inactive) | > 100 µM (inactive) | > 100 µM (inactive) | > 100 µM (inactive) | > 100 µM (inactive) | > 100 µM (inactive) | > 100 µM (inactive) | > 100 µM (inactive) | > 100 µM (inactive) | > 100 µM (inactive) | 55.7 µM (inactive) |
| CCn1c(-c2c(Cl)cc(O)cc2Cl)cc2c(Cl)cc(O)cc21 | 13.9 µM (inactive) | 3.48 | 6.25 µM (inactive) | 1.58 µM (inactive) | 6.05 µM (inactive) | 7.78 µM (inactive) | 3.56 µM (inactive) | 1.72 µM (inactive) | 4.85 µM (inactive) | 4.59 µM (inactive) | 9.04 µM (inactive) | 5.81 µM (inactive) | 4.05 µM (inactive) | 4.02 µM (inactive) | 13.3 µM (inactive) | 8.47 µM (inactive) | 7.62 µM (inactive) | 4.03 µM (inactive) |
| CN(C)CCC(=O)[C@@]1(O)CC[C@H]2[C@@H]3CC=C4C[C@@H](O)CC[C@]4(C)[C@H]3CC[C@@]21C | 16.1 µM (inactive) | 20.1 | 14.2 µM (inactive) | 18.9 µM (inactive) | 18.2 µM (inactive) | 23.6 µM (inactive) | 15.4 µM (inactive) | 11.9 µM (inactive) | 33.4 µM (inactive) | 20.2 µM (inactive) | 13.4 µM (inactive) | 1.58 µM (inactive) | 24.9 µM (inactive) | 15.9 µM (inactive) | 16.9 µM (inactive) | 25.6 µM (inactive) | 4.11 µM (inactive) | 17.3 µM (inactive) |
| COc1ccc(-c2cc(-c3ccccc3)nc(/N=C\c3ccccc3)n2)c(O)c1 | > 100 µM (inactive) | 5.37 | > 57.7 µM (inactive) | > 27.9 µM (inactive) | > 100 µM (inactive) | > 100 µM (inactive) | 6.81 µM (inactive) | 3.33 µM (inactive) | > 41.9 µM (inactive) | > 70.1 µM (inactive) | 7 µM (inactive) | 2.14 µM (inactive) | 97.7 µM (inactive) | 6.52 µM (inactive) | > 29 µM (inactive) | > 36.5 µM (inactive) | 5.62 µM (inactive) | 10.3 µM (inactive) |
| CNC(=O)NCCN1CC2CCC(CC2)C1 | > 10 µM (inactive) | > 10 | > 10 µM (inactive) | > 10 µM (inactive) | > 10 µM (inactive) | > 10 µM (inactive) | > 10 µM (inactive) | > 10 µM (inactive) | > 10 µM (inactive) | > 10 µM (inactive) | > 10 µM (inactive) | > 10 µM (inactive) | > 10 µM (inactive) | > 10 µM (inactive) | > 10 µM (inactive) | > 10 µM (inactive) | > 10 µM (inactive) | > 10 µM (inactive) |
| CC(Oc1ccccc1Cl)C(=O)NN1C(=O)CC(=O)NC1=S (stereo not drawn) | > 100 µM (inactive) | > 100 | > 100 µM (inactive) | > 100 µM (inactive) | > 100 µM (inactive) | > 100 µM (inactive) | > 100 µM (inactive) | > 100 µM (inactive) | > 100 µM (inactive) | > 100 µM (inactive) | > 100 µM (inactive) | 98.9 µM (inactive) | 89.5 µM (inactive) | 93.5 µM (inactive) | > 100 µM (inactive) | > 100 µM (inactive) | 36.6 µM (inactive) | > 100 µM (inactive) |
| O=C(/C=C/c1ccc(-c2ccccc2)cc1)NCc1ccc(C(=O)NCCc2ccccc2)cc1 | > 100 µM (inactive) | > 100 | 60.8 µM (inactive) | 28.1 µM (inactive) | > 100 µM (inactive) | > 100 µM (inactive) | > 100 µM (inactive) | > 100 µM (inactive) | > 100 µM (inactive) | 36.2 µM (inactive) | > 100 µM (inactive) | > 100 µM (inactive) | > 100 µM (inactive) | > 100 µM (inactive) | > 100 µM (inactive) | > 100 µM (inactive) | > 100 µM (inactive) | 65.3 µM (inactive) |
| O=C1C(CN2CCCC2)CCC1CN1CCCC1 (stereo not drawn) | > 100 µM (inactive) | 17.7 | > 100 µM (inactive) | 20 µM (inactive) | 15.8 µM (inactive) | 20.7 µM (inactive) | > 100 µM (inactive) | 1.9 µM (inactive) | 20.7 µM (inactive) | 18.3 µM (inactive) | 23.7 µM (inactive) | 3.59 µM (inactive) | > 100 µM (inactive) | 21.2 µM (inactive) | 26.7 µM (inactive) | > 100 µM (inactive) | 17.4 µM (inactive) | > 100 µM (inactive) |
| C/C(=C\COc1cc(O)c2c(c1)C(=O)c1cc(C)cc(O)c1C2=O)CCC1OC1(C)C (stereo not drawn) | > 100 µM (inactive) | 84.3 | 46 µM (inactive) | > 100 µM (inactive) | > 100 µM (inactive) | > 100 µM (inactive) | 10.3 µM (inactive) | 69.8 µM (inactive) | 37.8 µM (inactive) | 47.9 µM (inactive) | > 100 µM (inactive) | 93.8 µM (inactive) | > 100 µM (inactive) | > 100 µM (inactive) | > 100 µM (inactive) | > 100 µM (inactive) | 49.4 µM (inactive) | 63.8 µM (inactive) |
| C=C1C(=O)OC2C3C(=C)[C@@H](OC(C)=O)CC3C(C)=CC(OC(=O)C(C)(O)C(C)OC(C)=O)[C@@H]12 (stereo partly drawn) | 16.7 µM (inactive) | 10.4 | 21.3 µM (inactive) | 5.09 µM (inactive) | 7.6 µM (inactive) | 13.2 µM (inactive) | 17.6 µM (inactive) | 1.52 µM (inactive) | 7.28 µM (inactive) | 20.1 µM (inactive) | 16.3 µM (inactive) | 7.18 µM (inactive) | 48.2 µM (inactive) | 4.98 µM (inactive) | 14.7 µM (inactive) | 85.5 µM (inactive) | 19.5 µM (inactive) | 16.8 µM (inactive) |
